In patent US20220144812A1, “QUINOLINE DERIVATIVES AND THEIR USE FOR THE TREATMENT OF CANCER” (Epizyme, Inc., priority 2019, published 2022):
Read-outs that look alike come from different tables or passages of the source.

Key:
647V cells = experiment: High throughput proliferation (HTP) assay; format: cell-based; conditions: high throughput proliferation, read-out: CREBBP HTP IC50
Text: The following example describes methods and materials relating to a high throughput proliferation (HTP) assay. IC50 values (micromolar) are summarized in Table 1, Table 2, and Table 3 under the column labeled: “CREBBP HTP IC50 (micromolar).”
MATERIALS: 647V cell line, Dulbecco's MEM, penicillin-streptomycin, heat inactivated fetal bovine serum, D-PBS, and CellTiter-Glo were commercially available.
647V adherent cells were maintained in complete growth medium (Dulbecco's MEM supplemented with 15% v/v heat inactivated fetal bovine serum) and cultured at 37° C. under 5% CO2.
METHOD: Measurement of the effect of compound in High Throughput Proliferation (HTP) assays was performed as follows: Exponentially growing 647V cells were plated, in triplicate, in 384-well plates at the appropriate cell density in a final volume of 50 μl. Cells were incubated in the presence of increasing concentrations of compound. Viable cell number was determined at day 7 by addition of 35 μl CellTiter-Glo to each well of the plate, incubated in the dark for 30 minutes, and read on a PerkinElmer EnVision instrument to enumerate the number of cells.

EP300 (P300(1048-1664)) = target: T1, EP300 (P300(1048-1664)) (Homo sapiens, UniProt Q09472); experiment: Biochemical assay for EP300, SAMDI; conditions: EP300, SAMDI; read-out: EP300 Biochemistry IC50
T1 construct: P300(1048-1664)
T1 sequence (Q09472 1048-1664): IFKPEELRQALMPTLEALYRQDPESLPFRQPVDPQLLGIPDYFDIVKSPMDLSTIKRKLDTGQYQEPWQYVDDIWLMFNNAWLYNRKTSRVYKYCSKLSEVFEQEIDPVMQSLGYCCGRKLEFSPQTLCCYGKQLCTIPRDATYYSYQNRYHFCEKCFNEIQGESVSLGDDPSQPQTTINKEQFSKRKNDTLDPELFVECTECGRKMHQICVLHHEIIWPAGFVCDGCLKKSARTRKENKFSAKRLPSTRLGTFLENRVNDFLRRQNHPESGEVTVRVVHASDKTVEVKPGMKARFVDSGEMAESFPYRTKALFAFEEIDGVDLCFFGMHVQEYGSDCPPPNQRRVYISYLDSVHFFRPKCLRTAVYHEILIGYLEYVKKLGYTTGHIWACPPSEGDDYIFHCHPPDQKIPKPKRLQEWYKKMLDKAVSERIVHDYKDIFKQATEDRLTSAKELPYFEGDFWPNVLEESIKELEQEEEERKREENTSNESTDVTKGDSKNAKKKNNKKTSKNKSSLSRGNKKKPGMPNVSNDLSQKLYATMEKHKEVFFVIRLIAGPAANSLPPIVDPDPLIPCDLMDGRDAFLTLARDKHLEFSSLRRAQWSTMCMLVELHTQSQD
Text: The following example describes materials and methods relating to a biochemical assay for EP300. IC50 values (micromolar (μM)) are summarized in Table 1, Table 2, and Table 3 under the column labeled: “EP300 Biochemistry IC50 (micromolar).”

[1] = system: H3K18Ac in HB-CLS-2 cells; experiment: H3K18AC in-cell western (ICW) assay; format: cell-based; conditions: H3K18Ac in-cell western; read-out: CREBBP ICW IC50
Procedure, shortened: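 HB-CLS-2 cells seeded 16–24 hours before 2 hr compound treatment at 37° C, 5% CO2, then methanol-fixed. H3K18Ac detected with rabbit monoclonal primary (overnight, 4° C) and 800CW anti-rabbit secondary; DRAQ5 stained DNA. Plates imaged at 700 and 800 nm for integrated intensity; IC50 in μM.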

CREBBP (1084-1701) = target: T2, CREBBP (1084-1701) (Homo sapiens, UniProt Q92793); experiment: Biochemical assay for CREBBP (1084-1701), SAMDI; conditions: SAMDI, read-out: CREBBP Biochemistry IC50
T2 construct: measured in the following biochemical assay using CREBBP (1084-1701); purchased
Procedure, shortened: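 CREBBP (1084-1701) preincubated with compound 30 min at RT, then substrate mix (biotin-H3 11-25 K14R/K23R peptide, acetyl-CoA) added for 30 min at RT. Reaction stopped with formic acid, neutralised with sodium bicarbonate. Peptide acetylation read by SAMDI mass spectrometry to derive IC50.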

T2 sequence (Q92793 1084-1701): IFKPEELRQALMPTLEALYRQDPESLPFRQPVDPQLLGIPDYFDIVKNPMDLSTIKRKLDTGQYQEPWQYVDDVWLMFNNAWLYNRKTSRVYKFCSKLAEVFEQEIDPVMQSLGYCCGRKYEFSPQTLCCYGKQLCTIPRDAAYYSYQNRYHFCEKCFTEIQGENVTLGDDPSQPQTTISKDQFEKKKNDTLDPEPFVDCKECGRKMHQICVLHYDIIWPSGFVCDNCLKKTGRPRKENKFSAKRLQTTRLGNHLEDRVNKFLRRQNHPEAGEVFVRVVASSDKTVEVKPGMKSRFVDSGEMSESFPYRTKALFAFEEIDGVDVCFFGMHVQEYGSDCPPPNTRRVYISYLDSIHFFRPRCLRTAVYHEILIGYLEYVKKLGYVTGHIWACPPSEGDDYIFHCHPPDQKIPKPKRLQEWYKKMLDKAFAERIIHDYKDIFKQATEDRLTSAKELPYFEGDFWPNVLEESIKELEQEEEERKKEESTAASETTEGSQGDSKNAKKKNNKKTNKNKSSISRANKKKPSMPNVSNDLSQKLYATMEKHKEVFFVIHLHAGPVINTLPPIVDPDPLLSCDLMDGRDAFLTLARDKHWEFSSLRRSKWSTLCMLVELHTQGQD

Row | Structure (SMILES) | IC50 (647V cells; Homo sapiens, 647-V) [nM] | IC50 (EP300 (P300(1048-1664))) [nM] | IC50 [1] [nM] | IC50 (CREBBP (1084-1701)) [nM] | IC50 (647V cells) [nM]
1 | CCn1ncc(CN(C)C(=O)c2nc(-c3cc(C)nc(N[C@@H]4CCNC4)c3)nc3ccc(Cl)cc23)c1C [Compound 552] | 72.2 | 6.3 | 49.7 | 13.4 | –
2 | CCn1ncc(CN(C)C(=O)c2nc(-c3cccc(-c4ccn[nH]4)c3)nc3ccc(Cl)cc23)c1C [Compound 145] | – | 1900 | 6500 | 2800 | 9900
3 | CCn1ncc([C@@H](C)N(C)C(=O)c2cc(-c3ccc(NCCNC)c(C)n3)nc3ccc(Cl)cc23)c1C [Compound 608] | 39 | 26.4 | 107 | 92.8 | –
4 | CCn1ncc(CN(C)C(=O)c2nc(-c3ccc4n[nH]c(N)c4c3)nc3ccc(Cl)cc23)c1C [Compound 532] | 288 | 15.4 | 158 | 17.3 | –
5 | CCc1ncc(CN(C)C(=O)c2nc(-c3cc(C)c4[nH]c(=O)[nH]c4c3)nc3ccc(Cl)cc23)n1C [Compound 514] | 363 | 2.7 | 470 | 8.96 | –
6 | CCc1ncc(CN(C)C(=O)c2nc(-c3cc(C)nc(NCCN(C)C)c3)nc3ccc(Cl)cc23)n1C [Compound 583] | 10.8 | 14.2 | 29.7 | 34 | –
7 | CCn1ncc(CN(C)C(=O)c2nc(-c3cnc4n[nH]c(N)c4c3)nc3ccc(Cl)cc23)c1C [Compound 621] | 391 | 397 | 222 | 216 | –
8 | CCc1noc(CN(C)C(=O)c2cc(-c3ccc(NC4CN(C)C4)c(C)n3)nc3ccc(Cl)cc23)c1C [Compound 613] | 51.8 | 11.2 | 53.8 | 19.1 | –
9 | CCn1ncc(CN(C)C(=O)c2nc(-c3ccc(OCCCNC(C)C)c(C)c3)nc3ccc(Cl)cc23)c1C [Compound 31] | 130 | 140 | 260 | 28 | –
10 | CCn1ncc(CN(C)C(=O)c2cc(-c3ccc(NCCNC)c(C)n3)nc3ccc(C(=O)N(C)C)cc23)c1C [Compound 460] | 20000 | ≥ 50000 | 20000 | ≥ 50000 | –
11 | CCn1ncc(CN(C)C(=O)c2nc(-c3cc(C)cc(CNC)c3)nc3ccc(Cl)cc23)c1C [Compound 69] | 420 | 610 | 880 | 100 | –
12 | CCn1ncc(CN(C)C(=O)c2nc(-c3cc(C)cc(N[C@H]4CCNC4)c3)nc3ccc(Cl)cc23)c1C [Compound 476] | 204 | 6.4 | 378 | 28.5 | –
13 | CCn1ncc(CN(C)C(=O)c2nc(-c3cc(C(=O)NCCN4CCCC4)[nH]n3)nc3ccc(Cl)cc23)c1C [Compound 80] | 1400 | 690 | 1200 | 1200 | –
14 | CCn1ncc(CN(C)C(=O)c2nc(-c3cn(C)cn3)nc3ccc(Cl)cc23)c1C [Compound 170] | 6900 | 13000 | 14000 | 58000 | –
15 | CCn1ncc(CN(C)C(=O)c2nc(-c3cc(C)c4c(=O)[nH][nH]c4c3)nc3ccc(Cl)cc23)c1C [Compound 468] | 158 | 13.5 | 213 | 10.2 | –
16 | CCn1ncc(CN(C)C(=O)c2cc(-c3nn(C)c(C(=O)NC)c3C)nc3ccc(Cl)cc23)c1C [Compound 556] | 6290 | ≥ 50000 | 20000 | ≥ 50000 | –
17 | CCn1ncc(CN(C)C(=O)c2cc(-n3cc(C)cn3)nc3ccc(Cl)cc23)c1C [Compound 129] | 8300 | 1400 | 4600 | 7400 | –
18 | CCc1ncc(CN(C)C(=O)c2cc(-c3cc(C(=O)NC)n(C)n3)nc3ccc(COC)cc23)n1C [Compound 627] | 506 | 15.6 | 271 | 49.6 | –
19 | CCn1ncc(CN(C)C(=O)c2nc(-c3cc4[nH]cnc4cc3C)nc3ccc(Cl)cc23)c1C [Compound 17] | 130 | 120 | 170 | 60 | –
20 | CCn1ncc(CN(C)C(=O)c2nc(-c3cc(C)nc(N)c3)nc3ccc(Cl)cc23)c1C [Compound 28] | 180 | 92 | 220 | 29 | –
21 | CCc1onc(CN(C)C(=O)c2cc(-c3ccc(NCCNC)c(C)n3)nc3ccc(Cl)cc23)c1C [Compound 548] | 1860 | 2160 | 2150 | 2020 | –
22 | CCn1ncc(CN(C)C(=O)c2cc(-c3cc(NC4CNC4)cc(C)n3)nc3ccc(Cl)cc23)c1C [Compound 547] | 105 | 12.5 | 550 | 23.8 | –
23 | CCn1ncc(CN(C)C(=O)c2nc(-n3cc4c(n3)CNCC4)nc3ccc(Cl)cc23)c1C [Compound 179] | 20000 | 55000 | 18000 | 115000 | –
24 | CCn1ncc(CN(C)C(=O)c2nc(-c3cc4c(NC)n[nH]c4cc3C)nc3ccc(Br)cc23)c1C [Compound 562] | 87.9 | 14.9 | 154 | 49.4 | –
25 | CCn1ncc(CN(C)C(=O)c2nc(-c3ccc(OCCCN4CCCCC4)c(C)c3)nc3ccc(Cl)cc23)c1C [Compound 42] | 180 | 88 | 380 | 69 | –
26 | CCc1ncc(CN(C)C(=O)c2nc(-c3cc(C)cc(NC4CCNC4)c3)nc3ccc(COC)cc23)n1C (stereo not drawn) [Compound 501] | 1150 | 36.8 | 3890 | 148 | –
27 | CC1CCCc2c(CN(C)C(=O)c3cc(-c4cccc(Cl)c4)nc4ccc(Cl)cc34)cnn21 (stereo not drawn) [Compound 107] | 6200 | 590 | 2500 | 1100 | –
